Test results from patent publication US20250375401A1, “PHARMACEUTICAL COMPOSITION CONTAINING DEMETHYLZEYLASTERAL FOR PREVENTION OR TREATMENT OF DISEASES CAUSED BY MUSCLE LOSS” (SEOUL NATIONAL UNIVERSITY R&DB FOUNDATION, priority 2022, published 2025).

Assays:
[1] = system: myoblast cell line C2C12; assay: Myocyte differentiation in dexamethasone-induced cell model (total MHC immunofluorescence and DAPI staining); assay type: cell-based, mouse; conditions: C2C12 myotubes, 0.5 or 1 μM demethylzeylasteral with 100 μM dexamethasone
Procedure: dexamethasone-induced cell model, the following experiments were performed. Specifically, myoblast cell line C2C12 from mouse were seeded in 6 cm dishes and incubated for 72 hours. Then, the media were replaced to differentiation media to differentiate myoblasts into myotubes for 48 hours. After myotubes were formed, they were teated with 100 μM dexamethasone and 0.5, or 1 μM demethylzeylasteral for 72 hours while replacing the differentiation media every 24 hours. The differentiation media were suctioned off, and the dishes in which the cells were incubated were washed three times with PBS. Then, the cells were fixed with 4% formaldehyde, permeabilized with PBS containing 0.1% Triton-X 100 for 10 minutes, and blocked with PBS containing 3% bovine serum albumin for 1 hour. The cells were treated with total MHC antibodies, a biomarker for myocyte differentiation, followed by Alexa 488-conjugated secondary antibodies, and teated with DAPI for staining nuclei. The ratio of MHC+ nuclei to the total number of nuclei was calculated and plotted as a differentiation index, and the total number of nuclei stained with DAPI was also counted and plotted.

[2] = system: myoblast cell line C2C12; assay: Western blot of total MHC and MuRF-1 in dexamethasone-induced cell model; assay type: cell-based, mouse; conditions: C2C12 myotubes, 0.5 or 1 μM demethylzeylasteral with 100 μM dexamethasone, 48 hours, western blot (FIG. 5)
Procedure: Specifically, myoblast cell line C2C12 from mouse were seeded in 6 cm dishes and incubated for 72 hours.

With `C[C@@]1(C(=O)O)CC[C@]2(C)CC[C@]3(C)C4=CC(=O)c5c(cc(O)c(O)c5C=O)[C@]4(C)CC[C@@]3(C)[C@@H]2C1` [demethylzeylasteral, (2R,4aS,6aR,6aS,14aS,14bR)-9-formyl-10,11-dihydroxy-2,4a,6a,6a,14a-pentamethyl-8-oxo-1,3,4,5,6,13,14,14b-octahydropicene-2-carboxylic acid] the “myocyte differentiation index (total number of MHC+ nuclei divided by total number of nuclei)” value ([1]; 72 hours (FIG. 3)) was “significantly increased and restored”, the “number of nuclei (DAPI staining)” value ([1]; 72 hours (FIG. 4)) was “significantly increased” and the “expression of MuRF-1 (biomarker for muscle degradation)” value [2] was “significantly reduced expression”. For the same compound, the “expression of total MHC (biomarker for myocyte differentiation in late stage)” value [2] was “significantly increased expression”.
